Results: article PMC4770715, “LIM kinase inhibitors disrupt mitotic microtubule organization and impair tumor cell proliferation” (Oncotarget, 2015)

Key:
Experiment in all cases: biochemical
Parameters in all cases: KINOMEscan active-site competition binding, percent of control (100 = no competition)
Conditions in all cases: competition binding, percent control
[1] = biological target: EPHA7 (Homo sapiens, UniProt Q15375)
[2] = biological target: STK39 (Homo sapiens, UniProt Q9UEW8)
[3] = biological target: TESK1 (Homo sapiens, UniProt Q15569)
[4] = biological target: T1, PCTK1 (Homo sapiens, UniProt Q00536)
T1 construct: gene CDK16

[5] = biological target: T2, ERK5 (Homo sapiens, UniProt Q13164)
T2 construct: gene MAPK7

[6] = biological target: T3, TRKC (Homo sapiens, UniProt Q16288)
T3 construct: gene NTRK3

[7] = biological target: T4, IKK-epsilon (Homo sapiens, UniProt Q14164)
T4 construct: gene IKBKE

[8] = biological target: EGFR(G719C) (Homo sapiens, UniProt P00533, G719C)
[9] = biological target: FLT3(R834Q) (Homo sapiens, UniProt P36888, R834Q)
[10] = biological target: T5, LZK (Homo sapiens, UniProt O43283)
T5 construct: gene MAP3K13

[11] = biological target: T6, MEK3 (Homo sapiens, UniProt P46734)
T6 construct: gene MAP2K3

[12] = biological target: DDR1 (Homo sapiens, UniProt Q08345)
[13] = biological target: CSNK1A1 (Homo sapiens, UniProt P48729)
[14] = biological target: EGFR(L858R,T790M) (Homo sapiens, UniProt P00533, L858R/T790M)
[15] = biological target: FGFR3 (Homo sapiens, UniProt P22607)
[16] = biological target: ACVR2B (Homo sapiens, UniProt Q13705)
[17] = biological target: EPHA8 (Homo sapiens, UniProt P29322)
[18] = biological target: TEC (Homo sapiens, UniProt P42680)
[19] = biological target: T7, FAK (Homo sapiens, UniProt Q05397)
T7 construct: gene PTK2

[20] = biological target: KIT (Homo sapiens, UniProt P10721)
[21] = biological target: EPHB2 (Homo sapiens, UniProt P29323)
[22] = biological target: ITK (Homo sapiens, UniProt Q08881)
[23] = biological target: PHKG2 (Homo sapiens, UniProt P15735)
Chain of PHKG2 (P15735 whole entry): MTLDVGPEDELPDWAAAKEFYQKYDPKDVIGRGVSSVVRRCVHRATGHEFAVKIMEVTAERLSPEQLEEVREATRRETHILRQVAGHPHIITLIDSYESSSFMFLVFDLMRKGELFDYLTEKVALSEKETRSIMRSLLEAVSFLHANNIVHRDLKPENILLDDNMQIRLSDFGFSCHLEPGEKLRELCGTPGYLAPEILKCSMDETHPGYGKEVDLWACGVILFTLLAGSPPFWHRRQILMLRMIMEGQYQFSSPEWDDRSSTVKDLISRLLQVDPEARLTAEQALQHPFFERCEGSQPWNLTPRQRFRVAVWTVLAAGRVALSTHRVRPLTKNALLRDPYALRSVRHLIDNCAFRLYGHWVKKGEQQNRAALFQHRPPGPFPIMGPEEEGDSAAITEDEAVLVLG

T7 sequence (Q05397 whole entry): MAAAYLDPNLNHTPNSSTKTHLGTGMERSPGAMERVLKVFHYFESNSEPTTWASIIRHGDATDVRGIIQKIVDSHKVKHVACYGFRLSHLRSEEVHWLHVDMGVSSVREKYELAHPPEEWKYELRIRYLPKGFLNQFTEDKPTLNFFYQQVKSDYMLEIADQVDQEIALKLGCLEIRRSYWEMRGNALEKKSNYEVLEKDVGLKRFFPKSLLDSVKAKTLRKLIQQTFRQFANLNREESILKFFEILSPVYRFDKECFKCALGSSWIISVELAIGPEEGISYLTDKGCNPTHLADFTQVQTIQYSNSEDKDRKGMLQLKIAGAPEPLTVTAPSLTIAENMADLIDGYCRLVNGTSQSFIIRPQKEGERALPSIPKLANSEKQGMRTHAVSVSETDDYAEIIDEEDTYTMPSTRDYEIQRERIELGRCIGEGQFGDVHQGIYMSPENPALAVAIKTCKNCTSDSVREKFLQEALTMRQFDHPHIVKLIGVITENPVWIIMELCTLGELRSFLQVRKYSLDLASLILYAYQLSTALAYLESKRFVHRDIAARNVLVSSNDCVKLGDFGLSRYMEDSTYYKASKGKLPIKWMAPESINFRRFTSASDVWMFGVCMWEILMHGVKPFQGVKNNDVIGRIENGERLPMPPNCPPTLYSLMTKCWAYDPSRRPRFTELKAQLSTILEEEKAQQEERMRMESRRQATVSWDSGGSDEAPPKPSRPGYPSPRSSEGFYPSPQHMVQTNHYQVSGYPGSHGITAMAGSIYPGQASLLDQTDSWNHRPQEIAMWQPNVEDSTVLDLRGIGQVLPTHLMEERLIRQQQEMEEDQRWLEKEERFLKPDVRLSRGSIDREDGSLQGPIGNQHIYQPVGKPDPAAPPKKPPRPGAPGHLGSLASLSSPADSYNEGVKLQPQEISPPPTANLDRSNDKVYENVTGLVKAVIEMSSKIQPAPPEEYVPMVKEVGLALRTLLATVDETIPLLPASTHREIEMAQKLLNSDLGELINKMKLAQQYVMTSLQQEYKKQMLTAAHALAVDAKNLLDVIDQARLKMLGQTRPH
Chain of EPHA8 (P29322 whole entry): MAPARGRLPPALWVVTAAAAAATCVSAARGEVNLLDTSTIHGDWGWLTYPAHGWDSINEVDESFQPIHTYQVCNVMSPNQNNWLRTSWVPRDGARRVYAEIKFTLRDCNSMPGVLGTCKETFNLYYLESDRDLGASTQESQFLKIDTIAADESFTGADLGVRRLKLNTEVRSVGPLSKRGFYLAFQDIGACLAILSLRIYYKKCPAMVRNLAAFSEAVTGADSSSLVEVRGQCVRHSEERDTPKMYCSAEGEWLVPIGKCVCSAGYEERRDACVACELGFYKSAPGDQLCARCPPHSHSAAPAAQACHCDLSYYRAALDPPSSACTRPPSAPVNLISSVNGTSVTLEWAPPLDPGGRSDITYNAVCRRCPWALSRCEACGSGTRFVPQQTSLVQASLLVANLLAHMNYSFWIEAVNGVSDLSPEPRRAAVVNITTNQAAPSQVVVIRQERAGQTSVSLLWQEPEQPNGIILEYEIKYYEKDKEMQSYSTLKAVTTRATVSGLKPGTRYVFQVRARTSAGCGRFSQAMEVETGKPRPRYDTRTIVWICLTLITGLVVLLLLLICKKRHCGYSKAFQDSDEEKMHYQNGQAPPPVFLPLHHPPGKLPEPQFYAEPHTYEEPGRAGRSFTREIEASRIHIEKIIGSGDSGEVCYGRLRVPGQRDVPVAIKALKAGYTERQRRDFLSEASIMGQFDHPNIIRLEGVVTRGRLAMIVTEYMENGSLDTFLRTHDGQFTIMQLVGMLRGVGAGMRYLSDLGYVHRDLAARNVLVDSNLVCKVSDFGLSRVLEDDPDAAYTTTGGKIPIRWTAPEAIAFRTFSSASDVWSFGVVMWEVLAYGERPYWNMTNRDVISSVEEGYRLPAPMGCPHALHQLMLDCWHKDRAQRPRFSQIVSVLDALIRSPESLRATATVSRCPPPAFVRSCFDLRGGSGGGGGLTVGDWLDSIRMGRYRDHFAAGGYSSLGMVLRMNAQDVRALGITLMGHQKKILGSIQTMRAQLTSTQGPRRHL
T3 sequence (Q16288 whole entry): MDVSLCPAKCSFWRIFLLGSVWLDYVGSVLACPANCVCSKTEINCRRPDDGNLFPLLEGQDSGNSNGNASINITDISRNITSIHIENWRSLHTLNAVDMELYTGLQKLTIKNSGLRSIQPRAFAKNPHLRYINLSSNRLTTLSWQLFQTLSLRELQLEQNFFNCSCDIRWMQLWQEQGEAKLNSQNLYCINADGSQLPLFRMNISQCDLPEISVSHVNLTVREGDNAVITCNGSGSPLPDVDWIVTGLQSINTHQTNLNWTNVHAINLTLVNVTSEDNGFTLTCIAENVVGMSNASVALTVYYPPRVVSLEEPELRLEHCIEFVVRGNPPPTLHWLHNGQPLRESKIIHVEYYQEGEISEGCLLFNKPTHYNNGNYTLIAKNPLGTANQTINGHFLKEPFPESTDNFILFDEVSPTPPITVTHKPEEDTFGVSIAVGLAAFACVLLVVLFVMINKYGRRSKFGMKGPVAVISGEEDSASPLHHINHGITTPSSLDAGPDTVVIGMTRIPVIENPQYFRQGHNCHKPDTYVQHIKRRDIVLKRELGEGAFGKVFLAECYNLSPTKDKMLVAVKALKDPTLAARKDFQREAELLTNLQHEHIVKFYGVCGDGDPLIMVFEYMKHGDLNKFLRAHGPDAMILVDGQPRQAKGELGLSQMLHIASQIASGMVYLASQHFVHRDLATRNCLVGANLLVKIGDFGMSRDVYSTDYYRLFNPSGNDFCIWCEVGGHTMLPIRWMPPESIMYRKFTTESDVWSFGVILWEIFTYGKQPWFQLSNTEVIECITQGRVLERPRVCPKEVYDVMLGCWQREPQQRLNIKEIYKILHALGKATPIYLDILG
Chain of ACVR2B (Q13705 whole entry): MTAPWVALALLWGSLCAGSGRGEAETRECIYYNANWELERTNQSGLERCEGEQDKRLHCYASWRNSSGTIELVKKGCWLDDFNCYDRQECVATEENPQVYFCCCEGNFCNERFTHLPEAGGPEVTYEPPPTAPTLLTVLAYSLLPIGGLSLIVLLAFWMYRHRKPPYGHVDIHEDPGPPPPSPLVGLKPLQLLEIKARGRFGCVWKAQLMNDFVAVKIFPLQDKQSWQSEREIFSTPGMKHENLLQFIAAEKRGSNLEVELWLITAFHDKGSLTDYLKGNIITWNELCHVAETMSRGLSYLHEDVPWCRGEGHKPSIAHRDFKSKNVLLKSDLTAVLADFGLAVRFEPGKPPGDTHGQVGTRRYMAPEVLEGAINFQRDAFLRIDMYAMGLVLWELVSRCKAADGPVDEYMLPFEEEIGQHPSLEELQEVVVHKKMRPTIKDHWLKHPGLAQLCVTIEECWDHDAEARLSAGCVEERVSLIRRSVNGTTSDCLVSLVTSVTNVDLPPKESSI
T5 sequence (O43283 whole entry): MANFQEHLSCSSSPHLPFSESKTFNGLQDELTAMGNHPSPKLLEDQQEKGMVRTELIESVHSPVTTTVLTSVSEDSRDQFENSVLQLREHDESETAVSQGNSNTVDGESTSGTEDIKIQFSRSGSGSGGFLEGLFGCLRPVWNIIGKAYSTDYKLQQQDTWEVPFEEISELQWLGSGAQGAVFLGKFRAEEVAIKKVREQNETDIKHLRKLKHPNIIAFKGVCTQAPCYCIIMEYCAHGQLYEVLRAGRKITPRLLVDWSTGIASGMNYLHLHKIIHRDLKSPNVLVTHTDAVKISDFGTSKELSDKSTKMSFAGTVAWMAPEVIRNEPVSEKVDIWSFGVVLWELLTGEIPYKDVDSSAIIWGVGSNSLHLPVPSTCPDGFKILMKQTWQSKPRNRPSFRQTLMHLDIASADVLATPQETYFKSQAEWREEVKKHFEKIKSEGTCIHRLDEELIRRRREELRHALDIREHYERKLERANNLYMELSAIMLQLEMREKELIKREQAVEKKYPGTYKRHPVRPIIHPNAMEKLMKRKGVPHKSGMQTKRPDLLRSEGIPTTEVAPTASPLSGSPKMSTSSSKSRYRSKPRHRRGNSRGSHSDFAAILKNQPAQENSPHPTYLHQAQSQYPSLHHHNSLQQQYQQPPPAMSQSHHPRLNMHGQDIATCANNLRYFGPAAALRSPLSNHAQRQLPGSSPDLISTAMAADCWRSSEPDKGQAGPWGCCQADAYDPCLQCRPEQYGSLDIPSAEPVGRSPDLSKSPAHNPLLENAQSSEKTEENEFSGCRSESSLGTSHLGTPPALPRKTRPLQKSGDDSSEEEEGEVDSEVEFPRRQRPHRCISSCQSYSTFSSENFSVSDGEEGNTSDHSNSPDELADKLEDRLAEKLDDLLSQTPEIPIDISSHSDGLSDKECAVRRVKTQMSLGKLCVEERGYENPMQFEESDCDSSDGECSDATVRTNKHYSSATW

Row | Compound | remaining binding at 10 µM [1] [%] | remaining binding at 10 µM [2] [%] | remaining binding at 10 µM [3] [%] | remaining binding at 10 µM [4] [%] | remaining binding at 10 µM [5] [%] | remaining binding at 10 µM [6] [%] | remaining binding at 10 µM [7] [%] | remaining binding at 10 µM [8] [%] | remaining binding at 10 µM [9] [%] | remaining binding at 10 µM [10] [%] | remaining binding at 10 µM [11] [%] | remaining binding at 10 µM [12] [%] | remaining binding at 10 µM [13] [%] | remaining binding at 10 µM [14] [%] | remaining binding at 10 µM [15] [%] | remaining binding at 10 µM [16] [%] | remaining binding at 10 µM [17] [%] | remaining binding at 10 µM [18] [%] | remaining binding at 10 µM [19] [%] | remaining binding at 10 µM [20] [%] | further results
1 | COc1ccc(-c2cnccc2-c2cnc(NC(=O)C(C)C)s2)c(C(F)(F)F)c1 [CRT0105446, N-{5-[3-(4-Methoxy-2-trifluoromethyl-phenyl)-pyridin-4-yl]-hiazol-2-yl}-isobutyramide] | 94 | 100 | 96 | 11 | 86 | 100 | 85 | 89 | 88 | 100 | 83 | 83 | 100 | 91 | 96 | 100 | 100 | 100 | 100 | 55 | remaining binding at 10 µM [21]: 100%; remaining binding at 10 µM [22]: 100%; remaining binding at 10 µM [23]: 92%
2 | Cc1ccc(-c2cnccc2-c2cnc(Nc3ccc(O)cc3)s2)c(Cl)c1 [CRT0105950, 4-{5-[3-(2-Chloro-4-methyl-phenyl)-pyridin-4-yl]-thiazol-2-ylamino}-phenol] | 83 | 100 | 20 | 63 | 93 | 0.6 | 41 | 71 | 18 | 96 | 27 | 0.1 | 88 | 89 | 4.8 | 32 | 88 | 100 | 33 | 3.2 | remaining binding at 10 µM [21]: 81%; remaining binding at 10 µM [22]: 61%; remaining binding at 10 µM [23]: 52%
